What all share (type): biochemical
Assay [1] is described as follows: ω-transaminase activity assay, reverse direction (7-aminoheptanoate to pimelate semialdehyde). Particulars: cell free extract, 10 mM 7-aminoheptanoate, 10 mM pyruvate, 25° C., 4 h; against empty vector control; FIG. 15. The procedure:
(§1) A sequence encoding an N-terminal His-tag was added to the genes from Chromobacterium violaceum, Pseudomonas syringae, Rhodobacter sphaeroides, and Vibrio Fluvialis encoding the ω-transaminases of SEQ ID NOs: 8, 10, 11 and 13, respectively (see FIGS. 7F and 7G) such that N-terminal HIS tagged ω-transaminases could be produced. Each of the resulting modified genes was cloned into a pET21a expression vector under control of the T7 promoter and each expression vector was transformed into a BL21[DE3] E. coli host. The resulting recombinant E. coli strains were cultivated at 37° C. in a 250 mL shake flask culture containing 50 mL LB media and antibiotic selection pressure, with shaking at 230 rpm. Each culture was induced overnight at 16° C. using 1 mM IPTG.
(§2) The pellet from each induced shake flask culture was harvested via centrifugation. Each pellet was resuspended and lysed via sonication. The cell debris was separated from the supernatant via centrifugation and the cell free extract was used immediately in enzyme activity assays.
Enzyme activity assays in the reverse direction (i.e., 7-aminoheptanoate to pimelate semialdehyde) were performed in a buffer composed of a final concentration of 50 mM HEPES buffer (pH=7.5), 10 mM 7-aminoheptanoate, 10 mM pyruvate and 100 μM pyridoxyl 5′ phosphate. […] The formation of L-alanine from pyruvate was quantified via RP-HPLC.

Assay [2] is described as follows: ω-transaminase activity assay, forward direction (pimelate semialdehyde to 7-aminoheptanoate). The procedure: as §1, §2
Enzyme activity in the forward direction (i.e., pimelate semialdehyde to 7-aminoheptanoate) was confirmed for the transaminases of SEQ ID NO 10, SEQ ID NO 11 and SEQ ID NO 13. […] The formation of pyruvate was quantified via RP-HPLC.

The nature of assay [3]: ω-transaminase activity assay, 7-aminoheptanol to 7-oxoheptanol. The procedure:
A nucleotide sequence encoding an N-terminal His-tag was added to the Chromobacterium violaceum, Pseudomonas syringae and Rhodobacter sphaeroides genes encoding the ω-transaminases of SEQ ID NOs: 8, 10 and 11, respectively (see FIGS. 7F and 7G) such that N-terminal HIS tagged ω-transaminases could be produced. The modified genes were cloned into a pET21a expression vector under the T7 promoter. Each expression vector was transformed into a BL21[DE3] E. coli host. Each resulting recombinant E. coli strain were cultivated at 37° C. in a 250 mL shake flask culture containing 50 mL LB media and antibiotic selection pressure, with shaking at 230 rpm. Each culture was induced overnight at 16° C. using 1 mM IPTG.
as §2
Enzyme activity assays in the reverse direction (i.e., 7-aminoheptanol to 7-oxoheptanol) were performed in a buffer composed of a final concentration of 50 mM HEPES buffer (pH=7.5), 10 mM 7-aminoheptanol, 10 mM pyruvate, and 100 μM pyridoxyl 5′ phosphate. […] The formation of L-alanine was quantified via RP-HPLC.

Consider “SEQ ID NO 11: Rhodobacter sphaeroides ω-transaminase, Genbank Accession No. ABA81135.1”, for which the “acceptance of 7-aminoheptanoate as substrate (formation of L-alanine from pyruvate, RP-HPLC)” value in assay [1] is reported as “accepted 7-aminoheptanote as substrate”. In assay [2] (cell free extract, 10 mM pimelate semialdehyde, 10 mM L-alanine, 25° C., 4 h, against empty vector control, FIG. 16), the “acceptance of pimelate semialdehyde as substrate (formation of pyruvate from L-alanine, RP-HPLC)” value is listed as “accepted pimelate semialdehyde as substrate”. Moreover, in assay [2] (concluded from reversibility of the ω-transaminase activity), the “acceptance of pimelate semialdehyde as substrate, synthesizing 7-aminoheptanoate (conclusion from confirmed reversibility)” value is reported as “accepted pimelate semialdehyde as substrate”. In assay [3] (cell free extract, 10 mM 7-aminoheptanol, 10 mM pyruvate, 25° C., 4 h, against empty vector control, FIG. 19), the “acceptance of 7-aminoheptanol as substrate (formation of L-alanine, RP-HPLC)” value is “accepted 7-aminoheptanol as substrate”. Further, the “acceptance of 7-oxoheptanol as substrate, forming 7-aminoheptanol (concluded from reversibility)” value in assay [3] (concluded from reversibility of the ω-transaminase activity (Example 2)) was “accept 7-oxoheptanol as substrate”.

These data come from patent US10196657B2, “Methods of producing 7-carbon chemicals via methyl-ester shielded carbon chain elongation” (INVISTA North America S.á r.l., priority 2012, dated 2019).
